Assay [1] deals with human EPO production, Hep3B cells. Put plainly: Human EPO production activity in Hep3B cells (EPO-ELISA of culture supernatant). Type of assay: cell-based. As to conditions: for EC50: 24 hr incubation, values consisting solely of numbers, read-out: EC50 (μM) in vitro, human EPO production activity; for production activity (%) at 30 μM in vitro, human EPO: 24 hr, values containing %, relative to maximum production. The method, then: The activity of the test compound on human EPO production was measured using Hep3B (AMC) established from human liver-derived cell line.
Hep3B cells were cultured in Eagle-MEM medium containing 10% fetal bovine serum, and the test compound was diluted with dimethyl sulfoxide (DMSO).
Hep3B cells were cultured in a 96-well plate, and a test compound was added at each concentration 24 hr later. After incubation at 37° C. for 24 hr, the culture supernatant was collected. The concentration of human EPO produced in the culture supernatant was measured using a human EPO-ELISA kit (manufactured by StemCell Technologies, 01630) according to the manufacturer's explanation, and the human EPO production activity (%) of the test compound was calculated based on the maximum value of production under the above conditions and the value without addition of the test compound. […] In these Tables, the values consisting solely of numbers show EC50 (μM) and those containing % show human EPO production activity (%) at […].

Another assay concerns the target T1, human PHD2 (Homo sapiens, UniProt Q9GZT9).
T1 construct: made in house; host or cells: Sf9 insect cells (baculovirus, pVL1393 vector)
Put plainly: Measurement of human PHD inhibitory activity (TR-FRET, hydroxylation of HIF-1α partial peptide). The assay is classed as biochemical. The note with it: for IC50: human PHD2 enzyme 1 nM, 25° C. 30 min, values consisting solely of numbers, read-out: IC50 (μM) in vitro, human PHD inhibitory activity. The method, then:
Human PHD2 was expressed in insect cell (Sf9 cell). […] The vector and baculovirus were cotransfected into Sf9, and human PHD2 expression baculovirus was isolated in Sf9. By using the virus, human PHD2-expressed cell was prepared. […] The cell lysate was flowed into a column filled with ANTI-FLAG M2 Affinity Gel Freezer Safe (SIGMA), washed, and the N-terminal FLAG-tag-added human PHD2 was eluted and collected.
VBC complex (VHL/Elongin B/Elongin C) was expressed in Escherichia coli (BL21(DE3)). […] After these expression vectors were transfected into Escherichia coli (BL21(DE3)), Escherichia coli was cultured at 37° C. in the medium containing IPTG. The collected Escherichia coli was disrupted by sonication and flowed into a column filled with Ni-NTA superflow (QIAGEN), washed, and the product was eluted and collected. The eluate was flowed into a column filled with Glutathione Sepharose 4B, washed, and the product was eluted and collected. […]
As for human PHD2 enzyme activity, hydroxylation of proline residue contained in the 19 residues of the partial peptide based on the sequence of HIF-1α as a substrate was measured by TR-FRET (Time-Resolved Fluorescence Resonance Energy Transfer) method.
A test compound and a substrate solution were added to a 96-well plate. The reaction was started by addition of a human PHD2 enzyme solution (final concentration 1 nM) to the reaction system. After incubation at 25° C. for 30 min, a stop solution containing EDTA was added, and a VBC complex solution containing europium (Eu) and Xlent was added, and the amount of hydroxylated proline residue was quantified by time-resolved fluorescence spectroscopy. The time-resolved fluorescence in each well was measured, and the human PHD inhibitory activity (%) of the test compound was calculated based on the values of enzyme non-addition well and test compound non-addition well.

Where a name gives a salt, the structure may show the parent alone. Read-outs that look alike come from different tables or passages of the source.

Broadly, the EC50 is the concentration giving half of the maximal effect. Broadly, the IC50 is the concentration that inhibits the measured activity by half.

T1 sequence (Q9GZT9 whole entry): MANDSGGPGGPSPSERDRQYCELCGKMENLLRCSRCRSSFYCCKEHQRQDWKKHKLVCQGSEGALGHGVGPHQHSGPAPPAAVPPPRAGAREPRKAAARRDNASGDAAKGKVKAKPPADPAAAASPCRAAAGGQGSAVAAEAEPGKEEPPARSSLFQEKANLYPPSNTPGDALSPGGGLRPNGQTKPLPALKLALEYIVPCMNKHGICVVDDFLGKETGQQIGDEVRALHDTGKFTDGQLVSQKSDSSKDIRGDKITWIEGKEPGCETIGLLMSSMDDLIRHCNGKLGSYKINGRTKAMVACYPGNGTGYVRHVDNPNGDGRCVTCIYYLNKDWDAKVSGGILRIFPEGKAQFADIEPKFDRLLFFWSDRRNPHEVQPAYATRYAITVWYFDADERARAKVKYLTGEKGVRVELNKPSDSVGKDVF

For the compound `O=C(O)CNC(=O)c1c(O)cc(-c2ccc(C(F)(F)F)cc2)n2ncnc12` [Example 57, {[7-hydroxy-5-(4-trifluoromethyl-phenyl)[1,2,4]triazolo[1,5-a]pyridine-8-carbonyl]amino} acetic acid hydrochloride], the EC50 in assay [1] (Homo sapiens) was 4.7 µM. Besides, the IC50 on human PHD2 was 0.2 µM.
Consider `CC(C)(C)Cc1cc(O)c(C(=O)NCC(=O)O)c2ncnn12` [Example 39, {[5-(2,2-dimethylpropyl)-7-hydroxy[1,2,4]triazolo[1,5-a]pyridine-8-carbonyl]amino}acetic acid hydrochloride], for which the EC50 in assay [1] (Homo sapiens) came out at 22.3 µM. Moreover, the IC50 at human PHD2 was 1.25 µM.
Take `O=C(O)CNC(=O)c1c(O)cc(-c2ccccc2)n2ncnc12` [Example 22, [(7-hydroxy-5-phenyl[1,2,4]triazolo[1,5-a]pyridine-8-carbonyl)amino]acetic acid hydrochloride]: in assay [1] (Homo sapiens, Hep3B, 24 h), the concentration for a half-maximal effect (EC50) stood at 13.7 µM.
With `Cl.O=C(O)CNC(=O)c1c(O)cc(Cc2ccccc2)c2ncnn12` [Example 86, [(8-benzyl-6-hydroxy[1,2,4]triazolo[1,5-a]pyridine-5-carbonyl)amino] acetic acid hydrochloride], the “production activity (%) at 30 μM in vitro, human EPO” value (shortened to “production activity (%) at 30 μM”) in assay [1] was 6%. Moreover, on human PHD2, the 50% inhibitory concentration (IC50) is 0.83 µM.
For `O=C(O)CNC(=O)c1c(O)cc(CCc2ccc(C(F)(F)F)cc2)n2ncnc12` [Example 16, ({7-hydroxy-5-[2-(4-trifluoromethyl-phenyl)ethyl][1,2,4-]triazolo[1,5-a]pyridine-8-carbonyl}amino)acetic acid hydrochloride], the EC50 in assay [1] (Homo sapiens) came out at 7 µM. Besides, the half-inhibitory concentration (IC50) at human PHD2 is 0.32 µM.
`C[C@@H](NC(=O)c1c(O)cc(CCc2ccccc2)n2ncnc12)C(=O)O` [Example 70, (R)-2-[(7-hydroxy-5-phenethyl[1,2,4]triazolo[1,5-a]pyridine-8-carbonyl)amino] propionic acid hydrochloride]: the “production activity (%) at 30 μM” value in assay [1] worked out at 1%. At human PHD2 (at 30 μM, values containing %, read-out: inhibitory activity (%) at 30 μM in vitro, human PHD), the inhibition at 30 µM came out at 38%.
In the case of `O=C(O)CNC(=O)c1c(O)cc(CCc2ccc(Cl)cc2)n2ncnc12` [Example 14, ({5-[2-(4-chlorophenyl)ethyl]-7-hydroxy[1,2,4]triazolo[1,5-a]pyridine-8-carbonyl}amino)acetic acid hydrochloride], the EC50 in assay [1] (Homo sapiens) amounted to 5.1 µM. In addition, at human PHD2, the IC50 is 0.23 µM.
As for `O=C(O)CNC(=O)c1c(O)cc(-c2ccc(F)c(C(F)(F)F)c2)n2ncnc12` [Example 121, {[5-(4-fluoro-3-trifluoromethyl phenyl)-7-hydroxy[1,2,4]triazolo[1,5-a]pyridine-8-carbonyl]amino} acetic acid], at human PHD2, the IC50 was 0.33 µM.
`O=C(O)CNC(=O)c1c(O)cc(-c2cccc(Cl)c2)c2ncnn12` [Example 84, {[8-(3-chlorophenyl)-6-hydroxy[1,2,4]triazolo[1,5-a]pyridine-5-carbonyl]amino} acetic acid]: the half-maximal effective concentration (EC50) in assay [1] (Homo sapiens, Hep3B, 24 h) worked out at 11 µM.
Consider `O=C(O)CNC(=O)c1c(O)cc(CCc2ccccc2)c2ncnn12` [Example 87, [(6-hydroxy-8 phenethyl[1,2,4]triazolo[1,5-a]pyridine-5-carbonyl)amino] acetic acid hydrochloride], for which the EC50 in assay [1] (Homo sapiens, Hep3B, 24 h) amounted to 18.5 µM.
As for `O=C(O)CNC(=O)c1c(O)cc(-c2cc(F)cc(C(F)(F)F)c2)n2ncnc12` [Example 118, {[5-(3-fluoro-5-trifluoromethyl phenyl)-7-hydroxy[1,2,4]triazolo[1,5-a]pyridine-8-carbonyl]amino} acetic acid], the IC50 on human PHD2 worked out at 0.64 µM.
As for `O=C(O)CNC(=O)c1c(O)cc(-c2ccccc2)c2ncnn12` [Example 83, [(6-hydroxy-8-phenyl[1,2,4]triazolo[1,5-a]pyridine-5-carbonyl)amino] acetic acid hydrochloride], the concentration for a half-maximal effect (EC50) in assay [1] (Homo sapiens, Hep3B, 24 h) amounted to 20.7 µM.
In the case of `O=C(O)CNC(=O)c1c(O)ccn2ncnc12` [Example 12, [(7-hydroxy[1,2,4]triazolo[1,5-a]pyridine-8-carbonyl)amino]acetic acid hydrochloride], the “production activity (%) at 30 μM” value in assay [1] was found to be 5%.
Turning to `O=C(O)CNC(=O)c1c(O)cc(CCc2ccc(F)cc2)n2ncnc12` [Example 17, ({5-[2-(4-fluorophenyl)ethyl]-7-hydroxy[1,2,4]triazolo[1,5-a]pyridine-8-carbonyl}amino)acetic acid hydrochloride], the 50% effective concentration (EC50) in assay [1] (Homo sapiens, Hep3B, 24 h) stood at 8.8 µM.
As for `CCCCc1cc(O)c(C(=O)NCC(=O)O)c2ncnn12` [Example 117, [(5-butyl-7-hydroxy[1,2,4]triazolo[1,5-a]pyridine-8-carbonyl)amino] acetic acid], in assay [1], the EC50 was 7.7 µM.
Regarding `CCCCCc1cn2ncnc2c(C(=O)NCC(=O)O)c1O` [Example 71, [(7-hydroxy-6-pentyl[1,2,4]triazolo[1,5-a]pyridine-8-carbonyl)amino] acetic acid hydrochloride], the EC50 in assay [1] (Homo sapiens, Hep3B, 24 h) came to 15.8 µM.
The same measure, in the same setting: the value for `O=C(O)CNC(=O)c1c(O)cc(C2CCCCC2)c2ncnn12` [Example 92, [(8-cyclohexyl-6-hydroxy[1,2,4]triazolo[1,5-a]pyridine-8-carbonyl]amino] acetic acid hydrochloride] was 18.5 µM.
Regarding `CCCc1cc(O)c(C(=O)NCC(=O)O)c2ncnn12` [Example 65, [(7-hydroxy-5-propyl[1,2,4]triazolo[1,5-a]pyridine-8-carbonyl)amino] acetic acid hydrochloride], in assay [1], the “production activity (%) at 30 μM” value is 49%.
`O=C(O)CNC(=O)c1c(O)cc(-c2cccc(Cl)c2)n2ncnc12` [Example 44, {[5-(3-chlorophenyl)-7-hydroxy[1,2,4]triazolo[1,5-a]pyridine-8-carbonyl]amino}acetic acid]: in assay [1] (Homo sapiens, Hep3B, 24 h), the 50% effective concentration (EC50) is 10.4 µM.
As for `O=C(O)CNC(=O)c1c(O)ccn2cnnc12` [Example 10, [(7-hydroxy[1,2,4]triazolo[4,3-a]pyridine-8-carbonyl)amino]acetic acid hydrochloride], the “production activity (%) at 30 μM” value in assay [1] turned out to be 0%.
In the case of `CCCCc1cc(O)c(C(=O)NCC(=O)O)c2ncnn12` [Example 3, [(5-butyl-7-hydroxy[1,2,4]triazolo[1,5-a]pyridine-8-carbonyl)amino]acetic acid hydrochloride], the EC50 in assay [1] (Homo sapiens, Hep3B, 24 h) is 12.4 µM.
Turning to `O=C(O)CNC(=O)c1c(O)cc(-c2cc(F)cc(C3CC3)c2)n2ncnc12` [Example 122, {[5-(3-cyclopropyl-5-fluorophenyl)-7-hydroxy[1,2,4]triazolo[1,5-a]pyridine-8-carbonyl]amino} acetic acid], the IC50 at human PHD2 is 0.96 µM.
With `Cl.O=C(O)CNC(=O)c1c(O)ccc2ncnn12` [Example 107, [(6-hydroxy[1,2,4]triazolo[1,5-a]pyridine-5-carbonyl]amino} acetic acid hydrochloride], in assay [1], the “production activity (%) at 30 μM” value is 4%.
For the compound `Cc1nc2c(C(=O)NCC(=O)O)c(O)cc(CCc3ccccc3)n2n1` [Example 7, [(7-hydroxy-2-methyl-5-phenethyl[1,2,4]triazolo[1,5-a]pyridine-8-carbonyl)amino]acetic acid hydrochloride], in assay [1] (Homo sapiens, Hep3B, 24 h), the concentration giving a half-maximal response (EC50) was found to be 18.4 µM.
As to `O=C(O)CNC(=O)c1c(O)cc(C2CCCCC2)n2ncnc12` [Example 27, [(5-cyclohexyl-7-hydroxy[1,2,4]triazolo[1,5-a]pyridine-8-carbonyl)amino]acetic acid hydrochloride], the concentration for a half-maximal effect (EC50) in assay [1] (Homo sapiens, Hep3B, 24 h) was 7.7 µM.
On the same count and under the same terms, the result for `CCCCCc1cc(O)c(C(=O)NCC(=O)O)c2ncnn12` [Example 74, [(7-hydroxy-5-pentyl[1,2,4]triazolo[1,5-a]pyridine-8-carbonyl)amino] acetic acid hydrochloride] reads 8.3 µM.
Regarding `CCc1c(O)c(C(=O)NCC(=O)O)c2ncnn2c1CC.Cl` [Example 4, [(5,6-diethyl-7-hydroxy[1,2,4]triazolo[1,5-a]pyridine-8-carbonyl)amino]acetic acid hydrochloride], the “production activity (%) at 30 μM” value in assay [1] came out at 38%.

Source of the values: US8283465B2, “Triazolopyridine compound, and action thereof as prolyl hydroxylase inhibitor or erythropoietin production-inducing agent” (Japan Tobacco Inc., priority 2009, dated 2012).
